# What was measured:
# Format in all cases: in vivo
# Triticum aestivum [1] = test: Preemergence herbicidal activity (Example 67); design: herbicide rating, TRZAW: scale not given here; details: pre; 800 g/ha; rated about 1-3 weeks after treatment
# Experimental: (§1) Herbicidal evaluation of compounds of the invention is conducted on the following plant species:
# (§2) The soil is a prepared horticultural substrate containing 30% peat, 20% volcanic clay, 30% bark residues and 20% polyamide/styromull in a 1:3 mixture with loamy sand. Test solutions are prepared by dissolving the test compound in acetone containing 0.5% of an alkylphenol/ethylene oxide condensate under the trademark, TRITON® X-155, and diluting with water as needed. The test solutions are applied as a spray to the 3-6 week old seedling plants at dose rates corresponding to 800g/ha in a volume equivalent to 400 L/ha. A pneumatic spraying device employing a Teejet nozzle SS 8002E operating at 3 bar is used for a predetermined time. After spraying, the treated plants are placed on greenhouse benches and cared for in a manner commensurate with conventional greenhouse practice. After 10-21 days, the treated plants are evaluated and rated according to the rating system provided below.
# (§3) The soil surface is then sprayed with test solutions as described in the postemergence evaluation hereinabove. After spraying, the treated cups are placed on greenhouse benches and cared for in the manner commensurate with conventional greenhouse practice. About 1-3 weeks after treatment the cups are evaluated and rated according to the rating system provided hereinabove.
# Setaria viridis [2] = test: Preemergence herbicidal activity (Example 67); design: herbicide rating, SETVI: scale not given here; details: pre; 800 g/ha; rated about 1-3 weeks after treatment
# Experimental: as §1, §2, §3
# Amaranthus retroflexus [3] = test: Preemergence herbicidal activity (Example 67); details: pre; 800 g/ha; rated about 1-3 weeks after treatment
# Experimental: as §1, §2, §3
# Galium aparine [4] = test: Preemergence herbicidal activity (Example 67); details: pre; 800 g/ha; rated about 1-3 weeks after treatment
# Experimental: as §1, §2, §3
# Zea mays [5] = test: Preemergence herbicidal activity (Example 67); details: pre; 800 g/ha; rated about 1-3 weeks after treatment
# Experimental: as §1, §2, §3
# Veronica persica [6] = test: Preemergence herbicidal activity (Example 67); details: pre; 800 g/ha; rated about 1-3 weeks after treatment
# Experimental: as §1, §2, §3
# Abutilon theophrasti [7] = test: Preemergence herbicidal activity (Example 67); details: pre; 800 g/ha; rated about 1-3 weeks after treatment
# Experimental: as §1, §2, §3
# Ipomoea hederacea [8] = test: Preemergence herbicidal activity (Example 67); details: pre; 800 g/ha; rated about 1-3 weeks after treatment
# Experimental: as §1, §2, §3
# Helianthus annuus [9] = test: Preemergence herbicidal activity (Example 67); details: pre; 800 g/ha; rated about 1-3 weeks after treatment
# Experimental: as §1, §2, §3
# Chenopodium album [10] = test: Preemergence herbicidal activity (Example 67); details: pre; 800 g/ha; rated about 1-3 weeks after treatment
# Experimental: as §1, §2, §3
# Alopecurus myosuroides [11] = test: Preemergence herbicidal activity (Example 67); design: herbicide rating, ALOMY: scale not given here; details: pre; 800 g/ha; rated about 1-3 weeks after treatment
# Experimental: as §1, §2, §3
# Amaranthus retroflexus [12] = test: Postemergence herbicidal activity (Example 67); details: pos; 800 g/ha; rated after 10-21 days
# Experimental: as §1, §2
# Galium aparine [13] = test: Postemergence herbicidal activity (Example 67); details: pos; 800 g/ha; rated after 10-21 days
# Experimental: as §1, §2
# Zea mays [14] = test: Postemergence herbicidal activity (Example 67); details: pos; 800 g/ha; rated after 10-21 days
# Experimental: as §1, §2
# Veronica persica [15] = test: Postemergence herbicidal activity (Example 67); details: pos; 800 g/ha; rated after 10-21 days
# Experimental: as §1, §2
# Abutilon theophrasti [16] = test: Postemergence herbicidal activity (Example 67); details: pos; 800 g/ha; rated after 10-21 days
# Experimental: as §1, §2
# Triticum aestivum [17] = test: Postemergence herbicidal activity (Example 67); details: pos; 800 g/ha; rated after 10-21 days
# Experimental: as §1, §2
# Setaria viridis [18] = test: Postemergence herbicidal activity (Example 67); details: pos; 800 g/ha; rated after 10-21 days
# Experimental: as §1, §2
# Ipomoea hederacea [19] = test: Postemergence herbicidal activity (Example 67); details: pos; 800 g/ha; rated after 10-21 days
# Experimental: as §1, §2
# Hordeum vulgare [20] = test: Postemergence herbicidal activity (Example 67); details: pos; 800 g/ha; rated after 10-21 days
# Experimental: as §1, §2
# Helianthus annuus [21] = test: Postemergence herbicidal activity (Example 67); details: pos; 800 g/ha; rated after 10-21 days
# Experimental: as §1, §2
# Alopecurus myosuroides [22] = test: Postemergence herbicidal activity (Example 67); details: pos; 800 g/ha; rated after 10-21 days
# Experimental: as §1, §2
# Chenopodium album [23] = test: Postemergence herbicidal activity (Example 67); details: pos; 800 g/ha; rated after 10-21 days
# Experimental: as §1, §2
# Hordeum vulgare [24] = test: Preemergence herbicidal activity (Example 67); design: herbicide rating, HORVW: scale not given here; details: pre; 800 g/ha; rated about 1-3 weeks after treatment
# Experimental: as §1, §2, §3
Structure (SMILES),"herbicide rating, TRZAW (Triticum aestivum [1])","herbicide rating, SETVI (Setaria viridis [2])","herbicide rating, AMARE (Amaranthus retroflexus [3])","herbicide rating, GALAP (Galium aparine [4])","herbicide rating, ZEAMX (Zea mays [5])","herbicide rating, VERPE (Veronica persica [6])","herbicide rating, ABUTH (Abutilon theophrasti [7])","herbicide rating, IPOHE (Ipomoea hederacea [8])","herbicide rating, HELAN (Helianthus annuus [9])","herbicide rating, CHEAL (Chenopodium album [10])","herbicide rating, ALOMY (Alopecurus myosuroides [11])","herbicide rating, AMARE (Amaranthus retroflexus [12])","herbicide rating, GALAP (Galium aparine [13])","herbicide rating, ZEAMX (Zea mays [14])","herbicide rating, VERPE (Veronica persica [15])","herbicide rating, ABUTH (Abutilon theophrasti [16])","herbicide rating, TRZAW (Triticum aestivum [17])","herbicide rating, SETVI (Setaria viridis [18])","herbicide rating, IPOHE (Ipomoea hederacea [19])","herbicide rating, HORVW (Hordeum vulgare [20])",other results
COCCc1nsc(C(=O)NC(C)c2cccs2)n1 (racemic) [Example 33],0,0,0,0,0,5 (45-64%),0,0,0,2 (6-15%),0,0,3 (16-29%),0,0,2 (6-15%),2 (6-15%),6 (65-79%),4 (30-44%),3 (16-29%),"herbicide rating, HELAN (Helianthus annuus [21]): 4 (30-44%); herbicide rating, ALOMY (Alopecurus myosuroides [22]): 3 (16-29%); herbicide rating, CHEAL (Chenopodium album [23]): 2 (6-15%); herbicide rating, HORVW (Hordeum vulgare [24]): 0"
COc1ccc(-c2nsc(C(=O)NC(C)c3cccs3)n2)cc1 (racemic) [Example 35],0,0,0,4 (30-44%),0,4 (30-44%),0,0,3 (16-29%),5 (45-64%),0,3 (16-29%),4 (30-44%),3 (16-29%),2 (6-15%),4 (30-44%),3 (16-29%),8 (91-99%),4 (30-44%),3 (16-29%),"herbicide rating, HELAN (Helianthus annuus [21]): 5 (45-64%); herbicide rating, ALOMY (Alopecurus myosuroides [22]): 3 (16-29%); herbicide rating, CHEAL (Chenopodium album [23]): 5 (45-64%); herbicide rating, HORVW (Hordeum vulgare [24]): 0"
COc1ccc(-c2nsc(C(=O)NC(C)c3ccc(C)s3)n2)cc1 (racemic) [Example 37],0,0,0,0,0,0,0,0,0,6 (65-79%),0,0,0,0,0,0,3 (16-29%),4 (30-44%),1 (1-5%),2 (6-15%),"herbicide rating, HELAN (Helianthus annuus [21]): 0; herbicide rating, ALOMY (Alopecurus myosuroides [22]): 2 (6-15%); herbicide rating, CHEAL (Chenopodium album [23]): 3 (16-29%); herbicide rating, HORVW (Hordeum vulgare [24]): 0"
CC(NC(=O)c1nc(-c2ccccc2F)ns1)c1cccs1 (racemic) [Example 38],0,0,4 (30-44%),0,0,2 (6-15%),0,0,0,5 (45-64%),0,3 (16-29%),5 (45-64%),3 (16-29%),1 (1-5%),8 (91-99%),3 (16-29%),8 (91-99%),5 (45-64%),3 (16-29%),"herbicide rating, HELAN (Helianthus annuus [21]): 7 (80-90%); herbicide rating, ALOMY (Alopecurus myosuroides [22]): 4 (30-44%); herbicide rating, CHEAL (Chenopodium album [23]): 6 (65-79%); herbicide rating, HORVW (Hordeum vulgare [24]): 0"

# Reference: EP0726261A1, “Herbidical 1,2,4 thiadiazoles” (American Cyanamid Company, priority 1995, dated 1996)
